From US20040209937A1, “Treatment of excessive osteolysis with indolinone compounds” (SUGEN, INC., priority 2003, published 2004)
Entries after “also recorded” stand apart in the source; their conditions may differ.

What was measured:
[1] = tested on: osteoclast development; test: Murine osteoclast development in vitro (bone marrow cells + M-CSF and RANKL, TRAP quantitation); type: cell-based, mice
Method: Bone marrow cells were isolated from female Balb/c mice and cultured either in medium alone or with addition of 10 ng/ml murine M-CSF and 100 ng/ml murine RANK ligand (RANKL) from day 0 to induce osteoclast development. […] Osteoclast development on day 7 was assessed by colorimetric quantitation of tartrate resistant acid phosphatase activity (TRAP) as well as counting TRAP positive cells with >3 nuclei.
TRAP staining and quantitation were performed at day 6.

[2] = tested on: 435/HAL-luc breast cancer bone metastases; test: 435/HAL-luc experimental bone metastasis model, bioluminescence imaging of tumor growth; type: in vivo, mice
Method: The MDA-MB-435-HAL-luc breast cancer xenograft model was used to confirm significant inhibition of the growth of breast cancer bone metastases. The presence of live tumor cells was monitored by bioluminescence imaging with the Xenogen IVIS™ system.
The human breast carcinoma cell line 435/HAL was obtained (Pharmacia Corp., St. Louis, Mo.). […] Stable transfection of 435/HAL cells with luciferase (light emitting enzyme of firefly Photinus pyralis) was then performed. The cells were cotransfected with pGL3-control (Promega, Madison, Wis.) and pTK-Hygro (Clontech, Palo Alto, Calif.) at a 1:4 ratio using Lipofectamine 2000 (Invitrogen, Carlsbad, Calif.). Cells were maintained in Hygromycin (200 μg/ml) (Invitrogen) and resistant colonies isolated by ring cloning. Hygro-resistant colonies were screened for luciferase expression using Promega brite-glo reagent, normalized as RLU/μg protein. A subclone with the highest luciferase activity was selected, which we refer to as ‘435/HAL-luc.’ […]
Mice were injected intraperitoneally with 150 mg/kg of luciferin (Xenogen Corp., Alameda, Calif.), followed by anesthetization with Ketamine/Xylazine five minutes later. […] Briefly, mice were placed on the temperature-controlled bed of the imaging chamber and a gray-scale whole body image of the ventral side of the mice was captured, followed by an overlay of a bioluminescence map representing the spatial distribution of photons detected from cleaved luciferin in the cancer cells expressing luciferase. […] The bioluminescent signal was quantified by counting the pixels within the area drawn around each site of photon emission, using a customized version of the IGOR Pro version 4.0 Software (WaveMetrics, Inc., Lake Oswego, Oreg.) called Living Image version 2.11 (Xenogen Corporation, Alameda, Calif.). The sum of all detected photon counts within a region of interest containing the entire cancer lesion was determined. For evaluation of tumor growth inhibition, the Student's t test was used to assess differences in photon emission readings between treated and control groups (p<0.05 was considered significant). […]

[3] = molecular target: T1, human CSF1R (Homo sapiens, UniProt P07333); test: CSF1R phosphorylation in 3T3-huCSF1R cells (p-CSF1R Western blot after M-CSF stimulation); type: cell-based; conditions: M-CSF stimulated, FIG. 1
T1 construct: expressed in transfected cells; host or cells: NIH3T3 (3T3-huCSF1R)
Method: Cells were lysed immediately after stimulation and lysates spun at 4° C. for 20 mins. Supernatant was transferred to new microfuge tubes. For each sample, 500 μg of total protein was immunoprecipitated overnight with a rabbit polyclonal antibody to bead-conjugated human CSF1R (Santa Cruz Biotechnology, CA). A p-CSF1R Western blot was then performed, using anti-phospho-CSF1R (Tyr723) antibody (Cell Signaling Technology, Beverly, Mass.) at 1:1000 dilution.

[4] = tested on: serum pyridinoline (PYD); test: Serum PYD ELISA in mice bearing 435/HAL-luc bone metastases (osteolysis); type: in vivo
Excerpt: Athymic mice were inoculated with 3×10^6 435/HAL-luc cells into the left ventricle of the heart on day 0. Twenty days later, mice were imaged using the IVIS™ imaging system and placed into two matched groups of 16 mice based on photon emission, a measure of bioluminescence of the cancer. […] Mice were imaged approximately once a week. […] The femur, mandible and spines were collected from mice treated with either compound 1 or its vehicle, and fixed in Streck's Tissue Fixative prior to bone density scanning and histological analysis. Serum was also collected for measurement of collagen breakdown product pyridinoline (PYD) in the circulation.
Serum PYD ELISA: The parental breast carcinoma line MDA-MB-435, is very well characterized as having osteolytic activity (32). […] Serum samples were collected, aliquoted and frozen at −80° C. until analysis. Serum PYD was measured using a competitive enzyme immunoassay kit following the manufacturer's protocol (Serum PYD, Quidel 8019, San Diego, Calif.). Samples were measured in duplicate.

T1 sequence (P07333 20-972): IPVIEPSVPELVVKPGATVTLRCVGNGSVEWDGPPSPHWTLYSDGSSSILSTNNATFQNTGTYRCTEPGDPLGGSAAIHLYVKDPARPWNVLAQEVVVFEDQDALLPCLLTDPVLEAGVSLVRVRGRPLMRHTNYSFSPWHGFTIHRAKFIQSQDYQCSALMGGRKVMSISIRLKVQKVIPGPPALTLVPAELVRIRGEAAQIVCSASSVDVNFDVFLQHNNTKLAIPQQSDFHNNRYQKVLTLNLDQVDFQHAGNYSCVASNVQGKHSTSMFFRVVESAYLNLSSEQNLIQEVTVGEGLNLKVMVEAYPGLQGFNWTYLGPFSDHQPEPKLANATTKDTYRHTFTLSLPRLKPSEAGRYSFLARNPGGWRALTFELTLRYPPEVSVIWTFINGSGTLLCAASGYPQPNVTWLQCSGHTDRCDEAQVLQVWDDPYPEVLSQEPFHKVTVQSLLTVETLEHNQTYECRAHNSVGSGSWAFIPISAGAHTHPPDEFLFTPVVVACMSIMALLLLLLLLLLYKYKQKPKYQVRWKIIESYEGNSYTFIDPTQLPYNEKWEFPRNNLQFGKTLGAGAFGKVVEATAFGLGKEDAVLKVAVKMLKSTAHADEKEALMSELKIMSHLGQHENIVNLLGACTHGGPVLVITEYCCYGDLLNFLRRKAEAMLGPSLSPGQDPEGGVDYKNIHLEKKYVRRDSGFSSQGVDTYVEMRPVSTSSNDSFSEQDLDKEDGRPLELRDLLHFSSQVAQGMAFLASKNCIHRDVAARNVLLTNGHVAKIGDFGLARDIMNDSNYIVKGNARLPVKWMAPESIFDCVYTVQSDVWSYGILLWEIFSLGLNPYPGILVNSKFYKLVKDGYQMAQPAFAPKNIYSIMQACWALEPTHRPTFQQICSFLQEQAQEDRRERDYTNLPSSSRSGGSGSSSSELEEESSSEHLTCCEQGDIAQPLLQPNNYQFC

Question: For CCN(CC)CCNC(=O)c1c(C)[nH]c(C=C2C(=O)Nc3ccc(F)cc32)c1C [compound 1, 5-(5-Fluoro-2-oxo-1,2-dihydro-indol-3-ylidenemethyl)-2,4-dimethyl-1H-pyrrole-3-carboxylic acid (2-diethylamino-ethyl)-amide], which “effect of time of addition of compound (D0, D2 or D4) on osteoclast development” value ([1]; 100 nM and 10 nM, TRAP at day 6, FIG. 2b) is on record?
Answer: the later precursor cells are exposed to compound 1, the less inhibitory effect the compound exhibits; also recorded: inhibits an early stage of osteoclast development, but not later stages

Question: What about the “concentrations at which development of osteoclasts is inhibited” value ([1]; Balb/c bone marrow cells, M-CSF 10 ng/ml + RANKL 100 ng/ml, day 7, TRAP, FIG. 2a) of the same compound?
Answer: 10 to 100 nM

Question: And the “inhibition of osteoclast development” value ([1]; in vitro, FIG. 2a)?
Answer: inhibits osteoclast development in a dose-dependent manner

Question: What about the “live tumor / growth of breast cancer metastases by bioluminescence imaging” value ([2]; MDA-MB-435-HAL-luc xenograft model) of the same compound?
Answer: significant reduction in live tumor; also recorded: inhibits the growth of breast cancer metastases

Question: And the “photon count emission from the mouse bones” value ([2]; at both doses (80 or 40 mg per kg once daily by gavage), FIG. 3)?
Answer: greatly decreased

Question: What about the “inhibition of tumor growth in bone (photon emission, long bones and mandibles)” value ([2]; day 41, 80 or 40 mg per kg once daily by gavage, p=0.001) of the same compound?
Answer: 89%

Question: And the “inhibition of CSF1R phosphorylation” value [3]?
Answer: inhibits CSF1R phosphorylation in a dose-dependent manner; also recorded: inhibits phosphorylation of M-CSF receptors

Question: What about the “serum PYD mean value” ([4]; 80 mg per kg) of the same compound?
Answer: 1.3 ± 0.16 ng/mL

Question: What about the “reduction of serum PYD levels compared to vehicle treated mice” value ([4]; 14 compound 1 treated vs 12 vehicle treated mice, p=0.047) of the same compound?
Answer: 30%

Question: And the “osteolysis as measured by pyridinoline levels” value ([4]; mice with breast cancer metastases to bone, FIG. 4)?
Answer: less osteolysis
